Assay results taken from patent US10435376B2, “Derivatives of 1H-imidazole-4,5-dicarboxamide and use thereof in preparation of anticoccidial drugs” (GUANGZHOU INSIGHTER BIOTECHNOLOGY CO., LTD., priority 2015, dated 2019).
Read-outs that look alike come from different tables or passages of the source.

Key:
Format in all cases: in vivo
[1] = test system: Eimeria tenella; experiment: Inhibitory effects of the derivatives on Eimeria tenella of chicken (60 ppm in feed); conditions: for responders at 60 ppm, 60 µg/mL / response vs control in vivo at 60 ppm, 60 µg/mL: Eimeria tenella, 168 h; for responders at 60 ppm, 60 µg/mL: read-out: Survival rate (%); for response vs control in vivo at 60 ppm, 60 µg/mL: relative to group 1 (not infected, not treated), read-out: Relative weight gain (%); for Score (bloody stool score): 5 days after inoculation
Description: (§1) One-day-old yellow-feather fast-growing broilers were raised in a coccidia-free environment, and divided into groups for trial at the age of 18 days when no coccidian oocysts were detected by microscopy in their faeceas. Weak or overweight broilers were removed, and healthy broilers were divided into 30 groups with 50 broilers in each group and weight difference between each two broilers was below 20 g. Groups 1 and 2 were respectively a control group that the broilers were neither infected nor treated, and a control group that the broilers were infected but not treated. Groups 3 to 30 were respectively administrated with different derivatives. The broilers were given ad libitum access to feed and water when the feed was added with different medicines according to Table 1 at the day the broilers were divided. 24 Hours after the trial began, 250,000 sporulated Eimeria tenella oocysts were inoculated via an oral gavage into the crop of every broiler in each group except group 1. Bloody stool score was measured 5 days after the inoculation and the trial was ended 7 days after the inoculation. Relative weight gain (%), survival rate (%) and the bloody stool score were evaluated.
(§2) Bloody stool score: 0, no bloody stool was observed; 1, bloody stool below 25%; 2, 25 to 50% of bloody stool; 3, 50 to 75% of bloody stool; and 4, bloody stool over 75%.
(§3) Relative weight gain (%): The broilers were weighed at the beginning and the end of the trial to calculate the average weight gain and relative weigh gain. Relative weight gain=(average weight gain of each group/average weight gain of group 1)×100%.
(§4) Deaths of the broilers: Necropsy was performed and the amount of dead broilers in each group was recorded to calculate the survival rate. Survival rate=(total amount of the broilers in each group−amount of deaths caused by coccidial infection)/total amount of the broilers in each group×100%.

[2] = test system: Eimeria necatrix; experiment: Inhibitory effects of the derivatives on Eimeria necatrix of chicken; conditions: for responders at 60 ppm, 60 µg/mL / response vs control in vivo at 60 ppm, 60 µg/mL: Eimeria necatrix, 168 h; for responders at 60 ppm, 60 µg/mL: read-out: Survival rate (%); for response vs control in vivo at 60 ppm, 60 µg/mL: feed or water, read-out: Relative weight gain (%); for response vs control in vivo at 60 ppm, 60 µg/mL / Score (bloody stool score): broilers, 60 ppm in feed, 100,000 E. necatrix oocysts; for Score (bloody stool score): 5 days after inoculation
Method: as §2, §3, §4
as §1, with “into 10” for “into 30”, “to 10” for “to 30”, “Table 4” for “Table 1”, “began, 100,000” for “began, 250,000”, “Eimeria necatrix” for “Eimeria tenella”, “were evaluated (according to embodiment 2).” for “were evaluated.”

[3] = test system: Eimeria acervulina; experiment: Inhibitory effects of the derivatives on Eimeria acervulina of chicken; conditions: for responders at 60 ppm, 60 µg/mL / response vs control in vivo at 60 ppm, 60 µg/mL: Eimeria acervulina, 168 h; for responders at 60 ppm, 60 µg/mL: read-out: Survival rate (%); for response vs control in vivo at 60 ppm, 60 µg/mL: feed or water, read-out: Relative weight gain (%)
Method: as §3, §4
One-day-old yellow-feather fast-growing broilers were raised in a coccidia-free environment, and divided into groups for trial at the age of 18 days when no coccidian oocysts were detected by microscopy in their faeceas. Weak or overweight broilers were removed, and healthy broilers were divided into 10 groups with 50 broilers in each group and weight difference between each two broilers was below 20 g. Groups 1 and 2 were respectively a control group that the broilers were neither infected nor treated, and a control group that the broilers were infected but not treated. Groups 3 to 10 were respectively administrated with different derivatives. The broilers were given ad libitum access to feed and water when the feed was added with different medicines according to Table 3 at the day the broilers were divided. 24 Hours after the trial began, 400,000 sporulated Eimeria acervulina oocysts were inoculated via an oral gavage into the crop of every broiler in each group except group 1. The trial was ended 7 days after the inoculation. Relative weight gain (%), survival rate (%) and feed conversion ratio were evaluated.

[4] = broilers, 60 ppm in feed, 250,000 E. tenella oocysts, 7 days after inoculation
[5] = broilers, 60 ppm in feed, 250,000 E. tenella oocysts
[6] = broilers, 60 ppm in feed, 400,000 E. acervulina oocysts, 7 days after inoculation
[7] = broilers, 60 ppm in feed, 400,000 E. acervulina oocysts

Structure (SMILES) | responders at 60 ppm, 60 µg/mL [1, 4] | response vs control in vivo at 60 ppm, 60 µg/mL [1, 5] | Score (bloody stool score) [1, 5] | further results
CCCCN1C(=O)c2nc[nH]c2C1=O [IST15013, 5-butylpyrrolo[3,4-d]imidazole-4,6(1H,5H)-dione] | 100% | 88.8% | 3 (50 to 75% of bloody stool) | –
NC(=O)c1ncn(Cc2ccc(Cl)cc2)c1C(N)=O [IST15037, 1-(4-chlorobenzyl)-1H-imidazole-4,5-dicarboxamide] | 100% | 99.2% | 0 | anticoccidial activity in view of survival rate, bloody stool score and relative weight gain ([2]; 60 ppm, E. necatrix): highest anticoccidial activities; responders at 60 ppm, 60 µg/mL [2]: 100%; response vs control in vivo at 60 ppm, 60 µg/mL [2]: 98.9%; Score (bloody stool score) [2]: 0; anticoccidial activity in view of survival rate, bloody stool score and relative weight gain ([1]; 60 ppm, E. tenella): highest anticoccidial activities; anticoccidial activity in view of survival rate, relative weight gain and feed conversion ratio ([3]; 60 ppm, E. acervulina): highest anticoccidial activities; responders at 60 ppm, 60 µg/mL [3, 6]: 100%; response vs control in vivo at 60 ppm, 60 µg/mL [3, 7]: 98.5%; Feed conversion ratio [3, 7]: 2.148
O=C(Nc1ccc([N+](=O)[O-])cc1)c1nc[nH]c1C(=O)Nc1ccc([N+](=O)[O-])cc1 [IST15009, N^4,N^5-bis(4-nitrophenyl)-1H-imidazole-4,5-dicarboxamide] | – | 82.6% | 3 (50 to 75% of bloody stool) | responders at 60 ppm, 60 µg/mL [1]: 100%
CC(C)n1cnc(C(N)=O)c1C(N)=O [IST15115, 1-isopropyl-1H-imidazole-4,5-dicarboxamide] | 100% | 85.9% | 3 (50 to 75% of bloody stool) | –
COc1ccc(Cn2cnc(C(N)=O)c2C(N)=O)cc1 [IST15053, 1-(4-methoxybenzyl)-1H-imidazole-4,5-dicarboxamide] | 100% | 82.5% | 3 (50 to 75% of bloody stool) | –
CC(=O)NC(=O)c1ncn(Cc2ccc(Cl)cc2)c1C(=O)NC(C)=O [IST15151, N^4,N^5-diacetyl-1-(4-chlorobenzyl)-1H-imidazole-4,5-dicarboxamide] | 100% | 83.6% | 3 (50 to 75% of bloody stool) | –
Cc1nc(=O)c2[nH]cnc2c(=O)[nH]1 [IST15016, 6-methylimidazo[4,5-e][1,3]diazepine-4,8(1H,5H)-dione] | 100% | 74.8% | 2 (25 to 50% of bloody stool) | responders at 60 ppm, 60 µg/mL [3, 6]: 100%; response vs control in vivo at 60 ppm, 60 µg/mL [3, 7]: 75.6%; Feed conversion ratio [3, 7]: 2.524
CCC(=O)NC(=O)c1ncn(Cc2ccc(Cl)cc2)c1C(=O)NC(=O)CC [IST15152, 1-(4-chlorobenzyl)-N^4,N^5-dipropionyl-1H-imidazole-4,5-dicarboxamide] | 100% | 85.6% | 3 (50 to 75% of bloody stool) | –
CS(=O)(=O)c1ccc(Cn2cnc(C(N)=O)c2C(N)=O)cc1 [IST15150, 1-(4-(methylsulfonyl)benzyl)-1H-imidazole-4,5-dicarboxamide] | 100% | 86.3% | 2 (25 to 50% of bloody stool) | –
NC(=O)c1ncn(Cc2ccc(Cl)c(Cl)c2)c1C(N)=O [IST15054, 1-(3,4-dichlorobenzyl)-1H-imidazole-4,5-dicarboxamide] | 100% | 71.4% | 4 (bloody stool over 75%) | –
CCCCCCn1cnc(C(N)=O)c1C(N)=O [IST15162, 1-hexyl-1H-imidazole-4,5-dicarboxamide] | 100% | 81.6% | 3 (50 to 75% of bloody stool) | –
NC(=O)c1ncn(Cc2cc([N+](=O)[O-])cc([N+](=O)[O-])c2)c1C(N)=O [IST15056, 1-(3,5-dinitrobenzyl)-1H-imidazole-4,5-dicarboxamide] | – | 81.3% | 3 (50 to 75% of bloody stool) | responders at 60 ppm, 60 µg/mL [1]: 100%; responders at 60 ppm, 60 µg/mL [3]: 100%; response vs control in vivo at 60 ppm, 60 µg/mL [3, 7]: 72.5%; Feed conversion ratio [3, 7]: 2.405
CCn1cnc(C(=O)NC(C)=O)c1C(=O)NC(C)=O [IST15165, N^4,N^5-diacetyl-1-ethyl-1H-imidazole-4,5-dicarboxamide] | 100% | 89.7% | 2 (25 to 50% of bloody stool) | –
O=C1NC(=O)c2[nH]cnc21 [IST15015, pyrrolo[3,4-d]imidazole-4,6(1H,5H)-dione] | 100% | 72.5% | 4 (bloody stool over 75%) | –
NC(=O)c1ncn(Cc2ccc(Oc3ccc(Cl)cc3)cc2)c1C(N)=O [IST15167, 1-(4-(4-chlorophenoxy)benzyl)-1H-imidazole-4,5-dicarboxamide] | 100% | 82.7% | 3 (50 to 75% of bloody stool) | responders at 60 ppm, 60 µg/mL [2]: 100%; response vs control in vivo at 60 ppm, 60 µg/mL [2]: 75.8%; Score (bloody stool score) [2]: 3 (50 to 75% of bloody stool)
Cc1ccc(Cn2cnc(C(N)=O)c2C(N)=O)cc1 [IST15046, 1-(4-methylbenzyl)-1H-imidazole-4,5-dicarboxamide] | 100% | 78.4% | 3 (50 to 75% of bloody stool) | –
NC(=O)c1ncn(Cc2c(Cl)cccc2Cl)c1C(N)=O [IST15044, 1-(2,6-dichlorobenzyl)-1H-imidazole-4,5-dicarboxamide] | 100% | 79.8% | 3 (50 to 75% of bloody stool) | –
NC(=O)c1ncn(Cc2cccc(Cl)c2)c1C(N)=O [IST15041, 1-(3-chlorobenzyl)-1H-imidazole-4,5-dicarboxamide] | 100% | 85.4% | 3 (50 to 75% of bloody stool) | –
CCCCCn1cnc(C(N)=O)c1C(N)=O [IST15116, 1-pentyl-1H-imidazole-4,5-dicarboxamide] | 100% | 78.6% | 3 (50 to 75% of bloody stool) | –
NC(=O)c1ncn(Cc2ccc(F)cc2)c1C(N)=O [IST15042, 1-(4-fluorobenzyl)-1H-imidazole-4,5-dicarboxamide] | 100% | 81.2% | 3 (50 to 75% of bloody stool) | –
CN1CCN(C(=O)c2nc[nH]c2C(=O)N2CCN(C)CC2)CC1 [IST15008, (1H-imidazole-4,5-diyl) bis((4-methylpiperazin-1-yl)methanone)] | 100% | 89.7% | 2 (25 to 50% of bloody stool) | responders at 60 ppm, 60 µg/mL [2]: 100%; response vs control in vivo at 60 ppm, 60 µg/mL [2]: 81.2%; Score (bloody stool score) [2]: 3 (50 to 75% of bloody stool)
